Assay results taken from ChEMBL document CHEMBL3045916, “Synthesis, characterization, biological evaluation and in silico screening of oxadiazinanones” (Med Chem Res, 2013).
Values after ≈ are worked out from the molar mass of the structure shown.

Experiments:
Talaromyces marneffei [1] = assay: Fungicidal activity against Talaromyces marneffei after 48 hr; assay type: functional
Escherichia coli [2] = assay: Antibacterial activity against Escherichia coli ATCC 25922 assessed as growth inhibition after 24 hr by disk diffusion method; assay type: functional
Candida albicans [3] = assay: Antifungal activity against Candida albicans ATCC 90028 assessed as growth inhibition after 48 hr by macro-dilution method; assay type: functional; conditions: ATCC 90028, 48 h
Aspergillus fumigatus [4] = assay: Antifungal activity against Aspergillus fumigatus assessed as growth inhibition after 48 hr by macro-dilution method; assay type: functional
Streptococcus pyogenes [5] = assay: Bactericidal activity against Streptococcus pyogenes clinical isolate after 18 to 24 hr; assay type: functional
Pseudomonas aeruginosa [6] = assay: Antibacterial activity against Pseudomonas aeruginosa ATCC 9029 assessed as growth inhibition after 24 hr by disk diffusion method; assay type: functional
Staphylococcus aureus [7] = assay: Bactericidal activity against methicillin-resistant Staphylococcus aureus after 18 to 24 hr; assay type: functional
[8] = test system: Radical scavenging activity; assay: Antioxidant activity assessed as DPPH radical scavenging activity after 30 min by spectrophotometric analysis; assay type: functional
Escherichia coli [9] = assay: Antibacterial activity against Escherichia coli ATCC 8739 assessed as growth inhibition after 24 hr by macro-dilution method; conditions: ATCC 8739, 24 h
Staphylococcus aureus [10] = assay: Antibacterial activity against methicillin-resistant Staphylococcus aureus assessed as growth inhibition after 24 hr by disk diffusion method; assay type: functional
Streptococcus pyogenes [11] = assay: Antibacterial activity against Streptococcus pyogenes clinical isolate assessed as growth inhibition after 24 hr by macro-dilution method; assay type: functional
Pseudomonas aeruginosa [12] = assay: Bactericidal activity against Pseudomonas aeruginosa ATCC 9029 after 18 to 24 hr; assay type: functional
Klebsiella pneumoniae [13] = assay: Antibacterial activity against Klebsiella pneumoniae clinical isolate assessed as growth inhibition after 24 hr by macro-dilution method; assay type: functional
Candida albicans [14] = assay: Fungicidal activity against Candida albicans ATCC 90028 after 48 hr; assay type: functional; conditions: ATCC 90028, 48 h
[15] = test system: Radical scavenging activity; assay: Antioxidant activity assessed as DPPH radical scavenging activity at 10 ug/mL after 30 min by spectrophotometric analysis relative to control; assay type: functional
Pseudomonas aeruginosa [16] = assay: Antibacterial activity against Pseudomonas aeruginosa ATCC 9029 assessed as growth inhibition after 24 hr by macro-dilution method; assay type: functional; conditions: ATCC 9029, 24 h
[17] = test system: Radical scavenging activity; assay: Antioxidant activity assessed as DPPH radical scavenging activity at 6 ug/mL after 30 min by spectrophotometric analysis relative to control; assay type: functional
[18] = test system: Radical scavenging activity; assay: Antioxidant activity assessed as DPPH radical scavenging activity at 8 ug/mL after 30 min by spectrophotometric analysis relative to control; assay type: functional
[19] = test system: Radical scavenging activity; assay: Antioxidant activity assessed as DPPH radical scavenging activity at 4 ug/mL after 30 min by spectrophotometric analysis relative to control; assay type: functional
[20] = test system: Trichophyton mentagrophytes; assay: Fungicidal activity against Trichophyton mentagrophytes after 48 hr; assay type: functional
[21] = test system: Trichophyton mentagrophytes; assay: Antifungal activity against Trichophyton mentagrophytes assessed as growth inhibition after 48 hr by macro-dilution method; assay type: functional
Streptococcus pyogenes [22] = assay: Antibacterial activity against Streptococcus pyogenes clinical isolate assessed as growth inhibition after 24 hr by disk diffusion method; assay type: functional
Talaromyces marneffei [23] = assay: Antifungal activity against Talaromyces marneffei assessed as growth inhibition after 48 hr by agar disk diffusion method; assay type: functional
Candida albicans [24] = assay: Antifungal activity against Candida albicans ATCC 90028 assessed as growth inhibition after 48 hr by agar disk diffusion method; assay type: functional
Talaromyces marneffei [25] = assay: Antifungal activity against Talaromyces marneffei assessed as growth inhibition after 48 hr by macro-dilution method; assay type: functional
[26] = test system: Radical scavenging activity; assay: Antioxidant activity assessed as DPPH radical scavenging activity at 2 ug/mL after 30 min by spectrophotometric analysis relative to control; assay type: functional
Aspergillus fumigatus [27] = assay: Antifungal activity against Aspergillus fumigatus assessed as growth inhibition after 48 hr by agar disk diffusion method; assay type: functional
[28] = test system: Trichophyton mentagrophytes; assay: Antifungal activity against Trichophyton mentagrophytes assessed as growth inhibition after 48 hr by agar disk diffusion method; assay type: functional
Klebsiella pneumoniae [29] = assay: Bactericidal activity against Klebsiella pneumoniae clinical isolate after 18 to 24 hr; assay type: functional
Escherichia coli [30] = assay: Bactericidal activity against Escherichia coli ATCC 25922 after 18 to 24 hr; assay type: functional
Klebsiella pneumoniae [31] = assay: Antibacterial activity against Klebsiella pneumoniae clinical isolate assessed as growth inhibition after 24 hr by disk diffusion method; assay type: functional
Aspergillus fumigatus [32] = assay: Fungicidal activity against Aspergillus fumigatus after 48 hr; assay type: functional
Staphylococcus aureus [33] = assay: Antibacterial activity against methicillin-resistant Staphylococcus aureus assessed as growth inhibition after 24 hr by macro-dilution method; assay type: functional

CC1(c2cccc(O)c2)NNC(=O)CO1 (stereo not drawn)
MFC (Talaromyces marneffei [1]): 50 µg/mL (≈ 240 µM) | diameter of the inhibition zone (DIZ) (Escherichia coli [2]): 25.4 mm | MIC (Candida albicans [3]): 12.5 µg/mL (≈ 60 µM) | MIC (Aspergillus fumigatus [4]): 12.5 µg/mL (≈ 60 µM) | MBC (Streptococcus pyogenes [5]): 25 µg/mL (≈ 120 µM) | diameter of the inhibition zone (DIZ) (Pseudomonas aeruginosa [6]): 26.2 mm | MBC (Staphylococcus aureus [7]): 25 µg/mL (≈ 120 µM) | IC50 [8]: 5.99 µg/mL (≈ 28.8 µM) | MIC (Escherichia coli [9]): 12.5 µg/mL (≈ 60 µM) | diameter of the inhibition zone (DIZ) (Staphylococcus aureus [10]): 19.1 mm | MIC (Streptococcus pyogenes [11]): 12.5 µg/mL (≈ 60 µM) | MBC (Pseudomonas aeruginosa [12]): 25 µg/mL (≈ 120 µM) | MIC (Klebsiella pneumoniae [13]): 12.5 µg/mL (≈ 60 µM) | MFC (Candida albicans [14]): 25 µg/mL (≈ 120 µM) | Activity [15]: 82.8% | MIC (Pseudomonas aeruginosa [16]): 12.5 µg/mL (≈ 60 µM) | Activity [17]: 50.2% | Activity [18]: 66.3% | Activity [19]: 31.8% | MFC [20]: 25 µg/mL (≈ 120 µM) | MIC [21]: 12.5 µg/mL (≈ 60 µM) | diameter of the inhibition zone (DIZ) (Streptococcus pyogenes [22]): 19.4 mm | diameter of the inhibition zone (DIZ) (Talaromyces marneffei [23]): 14.5 mm | diameter of the inhibition zone (DIZ) (Candida albicans [24]): 25.5 mm | MIC (Talaromyces marneffei [25]): 12.5 µg/mL (≈ 60 µM) | Activity [26]: 16.7% | diameter of the inhibition zone (DIZ) (Aspergillus fumigatus [27]): 22.4 mm | diameter of the inhibition zone (DIZ) [28]: 17.2 mm | MBC (Klebsiella pneumoniae [29]): 25 µg/mL (≈ 120 µM) | MBC (Escherichia coli [30]): 50 µg/mL (≈ 240 µM) | diameter of the inhibition zone (DIZ) (Klebsiella pneumoniae [31]): 15.1 mm | MFC (Aspergillus fumigatus [32]): 50 µg/mL (≈ 240 µM) | MIC (Staphylococcus aureus [33]): 12.5 µg/mL (≈ 60 µM)
